Data as given in patent US9375411B2, “Uses and methods for the treatment of liver diseases or conditions” (Verlyx Pharma Inc., priority 2012, dated 2016).
“And” between values parts separate entries of the source, which are not always exact repeats. Equal entries are not always repeated. Where two headings read alike, the source gives them in different places.

Legend:
[1] = Repeated oral administration, tissue concentrations in mice; type: in vivo, Female Fox Chase SCID CB17 Mice
Protocol: In this experiment, mice from all groups were first injected with pentamidine via the IV route on Day 1 (5 mg/kg). Tissue concentrations were assessed 24 hours later (on Day 2), and weekly thereafter (Day 7 and 14) with no subsequent pentamidine administration. Starting on Day 2, groups 2 and 3 were given pentamidine once a day (QD) or twice a day (BID) respectively and tissue levels were measured 24 hours later (Day 3) and weekly thereafter for two weeks.

[2] = Repeat dose oral capsule or intravenous infusion, tissue concentrations and ratios; type: in vivo, Male Beagle Dogs; conditions: Beagle dogs; for Kp / Tmax / AUC(0-t) / Cmax: male, dog
Protocol: Pharmacokinetics Study in Male Beagle Dogs. Three oral formulations were tested.
In this example, the pharmacokinetics and biodistribution are studied in Male Beagle Dogs. The Dog is a relevant model since the elimination rate from the different organs, mainly the liver, are closer to that observed in man. Three oral formulations were tested and compared to the injectable formulation: […]
The test item dosing formulation was administered once daily as a 2-hour intravenous infusion via the saphenous and/or cephalic vein using an infusion pump, using a temporary peripheral vein catheter attached to a syringe, for 2 consecutive days. The dose volume was 4 mL/kg and the infusion rate was 2 mL/kg/hour for all animals. The actual volume administered to each animal was calculated and adjusted based on the most recent practical body weight of each animal. The catheter was flushed with 0.9% Sodium Chloride for Injection, USP (saline) in order to ensure that the whole intended dose was administered to the animals, after which the temporary catheter was removed and discarded.
The test item was administered twice daily (targeted time: 12 hours apart) by oral capsule administration for 3 consecutive days to fasted animals (at least 4 hours prior to dosing). Food was returned 2 hours post-dose.
The number of capsules to be administered to each animal was fixed to 2 capsules/animals/occasion. If needed, following dosing, the oral cavity was rinsed with an appropriate volume of reverse osmosis water to facilitate swallowing. The oral cavity was inspected following dosing to ensure that the capsules have been swallowed.
The following tables present the different Pharmacokinetic parameters for IV and PO groups, the concentrations of pentamidine in different tissues and the tissue to blood and tissue to liver concentration ratios.

[3] = system: GalN/LPS fulminant liver injury; assay: GalN/LPS fulminant liver injury model; type: in vivo; conditions: mice; for Serum ALT / Serum ALT levels reduced relative to PBS vehicle: 6.5 hours
Protocol: To evaluate the anti-inflammatory, anti-TNFα and hepato-protective properties of PENTAMIDINE, a Galactosamine/Liposaccharide (GalN/LPS) fulminant liver injury model was used.
Three independent experiments on mice untreated or pretreated with vehicle, compound PENTAMIDINE (isethionate salt) at doses of 25 and 40 mg/kg. PENTAMIDINE is dosed IP 30-minutes prior to the co-treatment with subtoxic doses of hepatotoxin GalN and immune stimulant LPS. Mice were sacrificed at 6.5 hours after GalN/LPS for analysis. The analysis of alanine transaminase (ALT) serum levels and histological observations allow the evaluation of the hepato-protective, anti-TNF-α, anti-inflammatory and/or anti-fibrotic activity.
To evaluate the anti-inflammatory, anti-TNFα and hepatoprotective properties of different pentamidine salt such as pentamidine bis-HCl (penta-HCL) and pentamidine tosylate (penta-Tos), a Galactosamine/Liposaccharide (GalN/LPS) fulminant liver injury model was used.
Pentamidine HCl and Tosylate were dosed IP 30-minutes prior to the co-treatment with subtoxic doses of hepatotoxin GalN and immune stimulant LPS. Mice were sacrificed at 6.5 hours after GalN/LPS for analysis. The analysis of alanine transaminase (ALT) serum levels and histological observations allow the evaluation of the hepato-protective, anti-TNF-α, anti-inflammatory and/or anti-fibrotic activity. Results

NASH-like pathology = assay: Diabetic and high-fat diet model (STAM mice, NASH-like pathology); type: in vivo, C57BL/6 mice; conditions: high dose group (25 mg/kg IP three times a week, 6-9 wks)
Protocol: In this experiment, NASH-like pathology is induced in C57BL/6 mice by a single subcutaneous injection of 200 ug streptozotocin 2 days after birth and feeding with high fat diet (HFD, 57 kcal % fat, cat#: HFD32, CLEA Japan, Japan) after 4 weeks of age (STAM mice). Vehicle or pentamidine treatment was administered three times a week from 6 to 9 weeks of age. Vehicle (0.9% NaCl) and PENTAMIDINE were administered by intraperitoneal route in a volume of 10 mL/kg.

[4] = system: GalN/LPS-induced liver injury; assay: GalN/LPS fulminant liver injury survival study; type: in vivo; conditions: C57BL/6 mice; IP 30 minutes prior GalN/LPS; PENTAMIDINE 40 mpk, Decamidine 10 mpk
Protocol: In this experiment, the 8-hour survival rate for C57BL/6 mice is evaluated when treated or not with two different aromatic diamidines (pentamidine isethionate(C5) and decamidine isethionate (C10)). Both compounds were administered intraperitoneally at doses close to their MTD 30 minutes prior a GalN/LPS-induced liver injury.

[5] = mice, PO 50 mg/kg
[6] = Repeat dose oral tablet or intravenous infusion, biodistribution and tissue elimination; conditions: Beagle dogs
[7] = IV 5 mg/kg Day 1, then PO QD or BID
[8] = intravenous dosing, individual animals 1001-1006 and Mean
[9] = summary (group mean), Group 1 IV, Groups 2-4 oral capsules
[10] = IP 25 mg/kg 30 minutes prior to GalN/LPS
[11] = IP 40 mg/kg 30 minutes prior to GalN/LPS

N=C(N)c1ccc(OCCCCCOc2ccc(C(=N)N)cc2)cc1 [pentamidine, pentamidine bis(2-hydroxyethanesulfonate)]
Kidney levels, effect of oral administration [1, 7]: not affected by oral administration | liver concentrations under oral administration regimen [1, 7]: can be maintained to a desired concentration | Kidneys, lung and muscle concentrations, difference between groups with or without PO ([1]; IV 5 mg/kg Day 1, then none, PO QD or PO BID): no significant difference between groups | Liver AUClast ([2]; IV dosing, Day 1): 27072 µM·h | Liver Cmax ([2]; IV dosing, Day 1): 210 µM | Lung AUClast ([2]; IV dosing, Day 1): 1807.2 µM·h | Lung Cmax ([2]; IV dosing, Day 1): 13.4 µM | Tissue-to-Liver Lung, based on AUC ([2]; IV, *Based on AUC): 6.67* % | Tissue-to-Liver Muscle, based on AUC ([2]; IV, *Based on AUC): 2.9* % | Tissue-to-Liver Skin, based on AUC ([2]; IV, *Based on AUC): 0.87* % | Concentration Blood [2, 8]: 0.16 μmol/L and 0.07 μmol/L and 0.08 μmol/L (2×) and 0.121 μmol/L and 0.25 μmol/L | Concentration Brain [2, 8]: 0.80 μmol/L (3×) and 0.70 μmol/L and 0.90 μmol/L and 0.50 μmol/L | Concentration Heart [2, 8]: 22.30 µM and 13.90 µM and 15.80 µM and 20.20 µM and 10.10 µM and 14.20 µM | Concentration Kidney [2, 8]: 53.10 µM and 38.30 µM and 48.70 µM and 55.80 µM and 44.80 µM and 39.70 µM | Concentration Liver [2, 8]: 208 µM and 174 µM and 168 µM and 210 µM and 125 µM and 159 µM | Concentration Lung [2, 8]: 11.56 µM and 11.52 µM and 13.39 µM and 10.48 µM and 9.80 µM and 11.80 µM | Concentration Muscle [2, 8]: 5.28 µM and 4.98 µM and 5.29 µM and 6.11 µM and 2.82 µM and 5.56 µM | Concentration Pancreas [2, 8]: 8.50 µM and 6.00 µM and 8.00 µM and 8.20 µM and 4.60 µM and 7.10 µM | Concentration Skin [2, 8]: 1.45 μmol/L and 1.23 μmol/L and 1.41 μmol/L and 1.80 μmol/L and 1.63 μmol/L (2×) | Tissue-to-Liver Brain [2, 9]: 0.46% | Tissue-to-Liver Heart [2, 9]: 9.66% | Tissue-to-Liver Kidney [2, 9]: 28.4% | Tissue-to-Liver Lung [2, 9]: 6.74% | Tissue-to-Liver Muscle [2, 9]: 2.9% | Tissue-to-Liver Pancreas [2, 9]: 4.34% | Tissue-to-Liver Skin [2, 9]: 0.91% | Kp ([2]; Beagle, brain/blood, intravenous, summary (group mean), Group 1 IV, Groups 2-4 oral capsules, read-out: Tissue-to-blood ratio Brain): 6.19 | Kp ([2]; Beagle, heart/blood, intravenous, summary (group mean), Group 1 IV, Groups 2-4 oral capsules, read-out: Tissue-to-blood ratio Heart): 133 | Kp ([2]; Beagle, kidney/blood, intravenous, summary (group mean), Group 1 IV, Groups 2-4 oral capsules, read-out: Tissue-to-blood ratio Kidney): 386 | Kp ([2]; Beagle, liver/blood, intravenous, summary (group mean), Group 1 IV, Groups 2-4 oral capsules, read-out: Tissue-to-blood ratio Liver): 1690 | Kp ([2]; Beagle, liver/blood, iv, 4 mg/kg/day, IV, *Based on AUC, read-out: Tissue-to-blood ratio Liver, based on AUC): 922 | Kp ([2]; Beagle, lung/blood, intravenous, summary (group mean), Group 1 IV, Groups 2-4 oral capsules, read-out: Tissue-to-blood ratio Lung): 111 | Kp ([2]; Beagle, lung/blood, iv, 4 mg/kg/day, IV, *Based on AUC, read-out: Tissue-to-blood ratio Lung, based on AUC): 61.6 | Kp ([2]; Beagle, muscle/blood, intravenous, summary (group mean), Group 1 IV, Groups 2-4 oral capsules, read-out: Tissue-to-blood ratio Muscle): 48.7 | Kp ([2]; Beagle, muscle/blood, iv, 4 mg/kg/day, IV, *Based on AUC, read-out: Tissue-to-blood ratio Muscle, based on AUC): 8.01 | Kp ([2]; Beagle, pancreas/blood, intravenous, summary (group mean), Group 1 IV, Groups 2-4 oral capsules, read-out: Tissue-to-blood ratio Pancreas): 58.4 | Kp ([2]; Beagle, skin/blood, intravenous, summary (group mean), Group 1 IV, Groups 2-4 oral capsules, read-out: Tissue-to-blood ratio Skin): 14.4 | Kp ([2]; Beagle, skin/blood, iv, 4 mg/kg/day, IV, *Based on AUC, read-out: Tissue-to-blood ratio Skin, based on AUC): 26.8 | Kp ([2]; beagle, brain / blood, iv, intravenous dosing, individual animals and mean, read-out: Tissue-to-blood ratio Brain): 4.13 | Kp ([2]; beagle, kidney / blood, iv, intravenous dosing, individual animals and mean, read-out: Tissue-to-blood ratio Kidney): 370 | Kp ([2]; beagle, pancreas / blood, iv, intravenous dosing, individual animals and mean, read-out: Tissue-to-blood ratio Pancreas): 38 | Tmax ([2]; liver, 4 mg/kg/day, IV dosing, Day 1, read-out: Liver Tmax): 168 h | Tmax ([2]; lung, 4 mg/kg/day, IV dosing, Day 1, read-out: Lung Tmax): 120 h | AUC(0-t) ([2]; muscle, 4 mg/kg/day, IV dosing, Day 1, read-out: Muscle AUClast): 786 µM·h | Cmax ([2]; muscle, 4 mg/kg/day, IV dosing, Day 1, read-out: Muscle Cmax): 6.1 µM | Tmax ([2]; muscle, 4 mg/kg/day, IV dosing, Day 1, read-out: Muscle Tmax): 168 h | AUC(0-t) ([2]; skin, 4 mg/kg/day, IV dosing, Day 1, read-out: Skin AUClast): 235 µM·h | Cmax ([2]; skin, 4 mg/kg/day, IV dosing, Day 1, read-out: Skin Cmax): 1.8 µM | Tmax ([2]; skin, 4 mg/kg/day, IV dosing, Day 1, read-out: Skin Tmax): 168 h | Numbers of TUNEL-positive cells per high power field in the livers ([3]; GalN/LPS, P<0.0002 as compared to PBS+GalN/LPS): significantly decreased | Serum ALT [3, 10]: 402+/−105 | Serum ALT levels reduced relative to PBS vehicle [3, 10]: 93% | Serum ALT [3, 11]: 177+/−44 | Serum ALT levels reduced relative to PBS vehicle [3, 11]: 97% | Liver weights (NASH-like pathology): close to normal mice control values | fibrosis formation (Sirius Red staining) (NASH-like pathology): trend for reduction | 8-hour survival [4]: 83% | Liver and kidney levels after PO administration versus blood [5]: several folds that of blood | muscle concentration after PO administration versus blood [5]: several folds the concentration found in blood | Biodistribution in organs following PO administration ([6]; instant-release tablet): favored the liver | exposure to the pancreas and kidney, PO versus IV administration ([6]; instant-release tablet PO vs IV, normalized liver concentrations): significantly lower exposure
